Consider 1 compound from patent publication US12686846B2, “Plant sweet and yeast MSF transporter capable of transporting different sugars simultaneously” (THE BOARD OF TRUSTEES OF THE UNIVERSITY OF ILLINOIS, priority 2020, dated 2026).

Holding throughout (assay type): cell-based
Assay [1] deals with T1, Saccharomyces cerevisiae ScGal2 (Gal2) transporter, SEQ ID NO:32 (Saccharomyces cerevisiae, UniProt P13181).
T1 construct: expressed in transfected cells; host or cells: S. cerevisiae SR8D8 (SR8 with HXT1-7 and GAL2 deleted), plasmid p42K-GPD1p-CYC1t
T1 sequence (P13181 1-574): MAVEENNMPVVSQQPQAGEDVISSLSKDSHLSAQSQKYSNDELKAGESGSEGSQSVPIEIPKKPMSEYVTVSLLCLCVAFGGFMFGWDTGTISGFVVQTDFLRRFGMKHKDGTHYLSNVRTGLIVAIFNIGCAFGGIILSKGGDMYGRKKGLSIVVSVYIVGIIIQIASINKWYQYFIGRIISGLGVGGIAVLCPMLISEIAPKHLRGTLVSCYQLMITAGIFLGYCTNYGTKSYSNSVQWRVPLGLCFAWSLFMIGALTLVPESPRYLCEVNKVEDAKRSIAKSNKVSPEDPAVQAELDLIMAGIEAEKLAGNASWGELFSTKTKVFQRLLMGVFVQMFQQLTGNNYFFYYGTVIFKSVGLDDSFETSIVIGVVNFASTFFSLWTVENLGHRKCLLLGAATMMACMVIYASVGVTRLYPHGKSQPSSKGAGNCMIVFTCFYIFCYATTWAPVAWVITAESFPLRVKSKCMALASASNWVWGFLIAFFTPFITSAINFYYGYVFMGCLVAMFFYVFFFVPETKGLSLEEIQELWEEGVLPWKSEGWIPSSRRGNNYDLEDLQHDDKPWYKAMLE
Briefly: C14 labeled sugar uptake assay (zero-trans influx), SR8D8 expressing ScGal2. As to conditions: initial xylose uptake (20 s), 30° C., pH 6.5; cell wet weight; ± SEM. Here is the method:
(§1) FIG. 7A illustrates sugar uptake kinetics by SR8D8. FIG. 7B illustrates sugar uptake kinetics by SR8D8 expressing AtSWEET1. FIG. 7C illustrates sugar uptake kinetics by SR8D8 expressing ScGal2. FIG. 7D illustrates sugar uptake kinetics by SR8D8 expressing AtSWEET7. FIG. 7E illustrates sugar uptake kinetics by SR8D8 expressing LST1_205437. Initial xylose uptake (20 s) was measured at 30° C. over a concentration range of 1 to 500 mM xylose. FIG. 7F illustrates sugar uptake kinetics by SR8D8. FIG. 7G illustrates sugar uptake kinetics by SR8D8 expressing AtSWEET1. FIG. 7H illustrates sugar uptake kinetics by SR8D8 expressing ScGal2. FIG. 7I illustrates sugar uptake kinetics by SR8D8 expressing AtSWEET7. FIG. 7J illustrates sugar uptake kinetics by SR8D8 expressing LST1_205437. Initial glucose uptake (5 s) was measured at 30° C. over a concentration range of 0.2 to 100 mM glucose. Curve fitting for Michaelis-Menten kinetics was applied to data of three independent measurements at each concentration.
(§2) A xylose fermenting S. cerevisiae yeast (SR8) with HXT1-7Δ, GAL2Δ deletions was used for transporter screening and characterization (SR8D8). SR8D8 was grown in YPE medium/plate (10 g/L yeast extract, 20 g/L peptone, and 5 g/L ethanol). […] Biomass was calculated from the OD600 measured using a Biomate 5 UV-visible spectrophotometer (Fisher, NY, USA). All growth rates were measured using a Bioscreen C plate reader system (Growth Curves USA, Piscataway, NJ, USA). […]
(§3) SR8D8 containing the respective plasmid was grown on selective YPE medium to an OD600 of 1-1.5, harvested by centrifugation, and washed twice in ice-cold uptake buffer (100 mM potassium phosphate, pH 6.5). […] Radioactivity was analyzed in a Beckman-Coulter LS6500 multi-purpose liquid scintillation counter (Beckman-Coulter, CA, USA).
(§4) Uptake was measured at sugar concentrations 0.2, 1, 5, 25, and 100 mM for glucose and 1, 5, 25, 66, 100, 200, and 500 mM for xylose. Inhibition of xylose uptake by glucose was measured at 25, 66, and 100 mM xylose with additional 25 and 100 mM unlabeled glucose.

Assay [2] addresses T2, Lipomyces starkeyi LST1_205437 transporter, wild type, SEQ ID NO: 4 (Lipomyces starkeyi, UniProt A0A1E3QE37).
T2 construct: whole-cell 14C sugar uptake
T2 sequence (A0A1E3QE37 1-603): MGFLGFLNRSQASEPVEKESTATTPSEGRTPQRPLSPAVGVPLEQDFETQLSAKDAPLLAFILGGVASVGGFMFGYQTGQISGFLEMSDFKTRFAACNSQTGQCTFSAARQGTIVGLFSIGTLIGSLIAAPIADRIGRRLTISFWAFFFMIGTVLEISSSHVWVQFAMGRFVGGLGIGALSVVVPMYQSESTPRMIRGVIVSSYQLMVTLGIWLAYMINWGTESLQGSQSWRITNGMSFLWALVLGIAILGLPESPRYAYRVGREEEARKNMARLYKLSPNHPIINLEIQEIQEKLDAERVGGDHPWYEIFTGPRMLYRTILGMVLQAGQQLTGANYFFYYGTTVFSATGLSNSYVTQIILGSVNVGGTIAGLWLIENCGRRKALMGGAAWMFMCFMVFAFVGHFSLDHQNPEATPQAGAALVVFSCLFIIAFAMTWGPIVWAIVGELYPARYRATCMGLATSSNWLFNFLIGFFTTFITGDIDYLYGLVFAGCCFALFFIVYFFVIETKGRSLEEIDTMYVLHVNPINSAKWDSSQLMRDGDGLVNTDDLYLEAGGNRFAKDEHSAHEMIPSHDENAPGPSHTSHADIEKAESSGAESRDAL
Briefly: C14 labeled sugar uptake assay (zero-trans influx), SR8D8 expressing LST1_205437. As to conditions: initial xylose uptake (20 s), 30° C., pH 6.5. Here is the method:
as §1, §2, §3, §4

Assay [3] addresses T3, Arabidopsis thaliana AtSWEET7 transporter, wild type (Table 2: SEQ ID NO: 3; FIG. 12: SEQ ID NO:2) (Arabidopsis thaliana, UniProt Q8LBF7).
T3 construct: expressed in transfected cells; host or cells: S. cerevisiae SR8D8 (SR8 with HXT1-7 and GAL2 deleted), plasmid p42K-GPD1p-CYC1t
T3 sequence (Q8LBF7 1-258): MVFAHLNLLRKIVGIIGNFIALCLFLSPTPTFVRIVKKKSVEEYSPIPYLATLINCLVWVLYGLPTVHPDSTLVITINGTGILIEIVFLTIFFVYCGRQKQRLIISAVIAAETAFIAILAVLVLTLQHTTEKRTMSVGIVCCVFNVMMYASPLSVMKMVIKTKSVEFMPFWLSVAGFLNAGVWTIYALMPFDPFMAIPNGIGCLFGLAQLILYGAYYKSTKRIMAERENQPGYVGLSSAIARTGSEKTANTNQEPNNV
The experiment in a line: C14 labeled sugar uptake assay (zero-trans influx), SR8D8 expressing AtSWEET7. The settings on record: initial xylose uptake (20 s), 30° C., pH 6.5; cell wet weight; ± SEM. Here is the method: as §1, with “Curve fitting for Michaelis-Menten kinetics was applied to data of three independent measurements at each concentration.” left out
(§5) A xylose fermenting S. cerevisiae yeast (SR8) with HXT1-7Δ, GAL2Δ deletions was used for transporter screening and characterization (SR8D8). […] Biomass was calculated from the OD600 measured using a Biomate 5 UV-visible spectrophotometer (Fisher, NY, USA). All growth rates were measured using a Bioscreen C plate reader system (Growth Curves USA, Piscataway, NJ, USA). […]
(§6) Uptake was measured at sugar concentrations 0.2, 1, 5, 25, and 100 mM for glucose and 1, 5, 25, 66, 100, 200, and 500 mM for xylose. […]

For assay [4], the target named is T4, Arabidopsis thaliana AtSWEET1 transporter, wild type, SEQ ID NO: 1 (Arabidopsis thaliana, UniProt Q8L9J7).
T4 construct: whole-cell 14C sugar uptake
T4 sequence (Q8L9J7 1-247): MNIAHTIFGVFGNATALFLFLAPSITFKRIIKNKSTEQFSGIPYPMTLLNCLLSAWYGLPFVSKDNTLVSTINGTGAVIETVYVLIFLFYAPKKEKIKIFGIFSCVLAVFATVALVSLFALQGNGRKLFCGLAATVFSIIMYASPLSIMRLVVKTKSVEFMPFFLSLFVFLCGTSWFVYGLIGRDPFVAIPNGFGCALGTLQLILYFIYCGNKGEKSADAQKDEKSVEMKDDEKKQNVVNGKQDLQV
The experiment in a line: C14 labeled sugar uptake assay, SR8D8 expressing AtSWEET1. As to conditions: in words. Here is the method: as §1, with “Curve fitting for Michaelis-Menten kinetics was applied to data of three independent measurements at each concentration.” left out
as §5, §6

On to `OC1OC[C@@H](O)[C@H](O)[C@H]1O` (stereo partly drawn) [Xylose, D-xylose], for which the “Vmax (xylose)” value in assay [1] worked out at 88.7 ± 10.0 nmol/min/mg; in assay [2] it was 76.8 nmol/min/mg; in assay [2] (cell wet weight, ± SEM), 76.8 ± 9.0 nmol/min/mg; in assay [3] it was 100.9 ± 14.8 nmol/min/mg. In addition, the xylose transport kinetics result in assay [4] is on record as “very poor xylose transport kinetics”.
